# According to patent US8258134B2, “Pyridazinone glucokinase activators” (Hoffmann-La Roche Inc., priority 2008, dated 2012):
# Target: T1, Recombinant human liver GK1 (GST-GK) (Homo sapiens, UniProt P35557)
# T1 construct: made in house; host or cells: E. coli
# T1 sequence (P35557 1-466 isoform P35557-2): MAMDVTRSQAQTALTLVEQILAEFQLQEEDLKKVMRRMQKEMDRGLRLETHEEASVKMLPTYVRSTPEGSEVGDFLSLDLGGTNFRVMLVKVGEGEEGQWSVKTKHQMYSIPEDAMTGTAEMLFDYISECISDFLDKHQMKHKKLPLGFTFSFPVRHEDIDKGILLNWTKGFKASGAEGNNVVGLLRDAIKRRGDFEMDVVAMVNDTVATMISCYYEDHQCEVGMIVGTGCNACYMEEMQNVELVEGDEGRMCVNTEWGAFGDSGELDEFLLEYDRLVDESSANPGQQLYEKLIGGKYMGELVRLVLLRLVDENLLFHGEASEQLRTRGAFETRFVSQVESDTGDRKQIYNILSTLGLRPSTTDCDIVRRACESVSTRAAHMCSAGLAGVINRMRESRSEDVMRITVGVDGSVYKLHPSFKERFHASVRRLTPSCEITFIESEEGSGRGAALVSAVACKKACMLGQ
# Assay: Glucokinase in vitro assay (G6PDH-coupled NADH generation, OD340)
# Assay type: biochemical
# Conditions: 30 uM test compound, 5 mM D-glucose
# How it was run: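 Activation readout is SC1.5, the activator concentration raising GK rate (OD340/min) 50% above 10% DMSO controls. The coupled reaction used GST-GK1 from E. coli, 5 mM glucose, 1 mM ATP, 1.8 mM NAD and 25 mM Hepes pH 7.1 at 30° C. Enzyme was added after a 10 min compound pre-incubation.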
row,SMILES,fold activation @ 30 uM
1,"Cn1ccc(NC(=O)C(CC2CCCC2)n2nc(Oc3ccccc3)ccc2=O)n1 (stereo not drawn) [Example 85, 3-cyclopentyl-N-(1-methyl-1H-pyrazol-3-yl)-2-(6-oxo-3-phenoxy-6H-pyridazin-1-yl)-propionamide]",1.3 fold
2,"CC1CCCC(C)C1Oc1cnn(C(CC2CCCC2)C(=O)Nc2ccn(C[C@@H](O)CO)n2)c(=O)c1 (stereo partly drawn) [Example 91, 3-Cyclopentyl-N-[1-((R)-2,3-dihydroxy-propyl)-1H-pyrazol-3-yl]-2-[4-(2,6-dimethyl-cyclohexyloxy)-6-oxo-6H-pyridazin-1-yl]-propionamide]",1.28 fold

# Same assay, conditions: 5 mM D-glucose, 30° C., pH 7.1, 10% DMSO
row,SMILES,SC1.5 average (concentration of activator that produced a 50% increase in the activity of GK)
1,"CC(C)(O)Cn1ccc(NC(=O)C(CC2CCCC2)n2ncc(Oc3ccc(C(F)(F)F)cc3)cc2=O)n1 (stereo not drawn) [Example 5, 3-Cyclopentyl-N-[1-(2-hydroxy-2-methyl-propyl)-1H-pyrazol-3-yl]-2-[6-oxo-4-(4-trifluoromethyl-phenoxy)-6H-pyridazin-1-yl]-propionamide]",2.267 µM
2,"O=C(Nc1ccn(C[C@@H](O)CO)n1)C(CC1CCCC1)n1ncc(Oc2cccc3[nH]ccc23)cc1=O (stereo partly drawn) [Example 96, 3-Cyclopentyl-N-[1-((R)-2,3-dihydroxy-propyl)-1H-pyrazol-3-yl]-2-[4-(1H-indol-4-yloxy)-6-oxo-6H-pyridazin-1-yl]-propionamide]",0.067 µM
3,"Cc1ccccc1Oc1cnn([C@@H](CC2CCCC2)C(=O)Nc2ccc(C(=O)O)cn2)c(=O)c1 [Example 74A, 6-[(S)-3-Cyclopentyl-2-(6-oxo-4-o-tolyloxy-6H-pyridazin-1-yl)-propionylamino]-nicotinic acid]",0.043 µM
4,"Cn1ccc(NC(=O)C(CC2CCCC2)n2nc(Oc3ccccc3)ccc2=O)n1 (stereo not drawn) [Example 85, 3-cyclopentyl-N-(1-methyl-1H-pyrazol-3-yl)-2-(6-oxo-3-phenoxy-6H-pyridazin-1-yl)-propionamide]",> 30 µM
5,"O=C(O)c1ccc(NC(=O)[C@@H](CC2CCCC2)n2ncc(Oc3cccc4c3CCCC4)cc2=O)nc1 [Example 72B, 6-{(R)-3-Cyclopentyl-2-[6-oxo-4-(5,6,7,8-tetrahydro-naphthalen-1-yloxy)-6H-pyridazin-1-yl]-propionylamino}-nicotinic acid]",0.226 µM
6,"O=C(Nc1ccn(C[C@@H](O)CO)n1)C(CC1CCCC1)n1ncc(Oc2ccccc2CCO)cc1=O (stereo partly drawn) [Example 101, 3-Cyclopentyl-N-[1-((R)-2,3-dihydroxy-propyl)-1H-pyrazol-3-yl]-2-{4-[2-(2-hydroxy-ethyl)-phenoxy]-6-oxo-6H-pyridazin-1-yl}-propionamide]",0.732 µM
7,"CC(C)(O)Cn1ccc(NC(=O)C(CC2CCOCC2)n2ncc(Oc3ccccc3Cl)c(Cl)c2=O)n1 (stereo not drawn) [Example 129, 2-[5-Chloro-4-(2-chloro-phenoxy)-6-oxo-6H-pyridazin-1-yl]-N-[1-(2-hydroxy-2-methyl-propyl)-1H-pyrazol-3-yl]-3-(tetrahydro-pyran-4-yl)-propionamide]",1.006 µM
8,"CC(C)(O)Cn1ccc(NC(=O)C(CC2CCCC2)n2ncc(Oc3ccccc3-c3ccccc3)cc2=O)n1 (stereo not drawn) [Example 23, 2-[4-(Biphenyl-2-yloxy)-6-oxo-6H-pyridazin-1-yl]-3-cyclopentyl-N-[1-(2-hydroxy-2-methyl-propyl)-1H-pyrazol-3-yl]-propionamide]",0.868 µM
9,"CC(C)(O)Cn1ccc(NC(=O)C(CC2CCCCC2)n2ncc(Oc3cccc4c3OCCO4)cc2=O)n1 (stereo not drawn) [Example 133, 3-Cyclohexyl-2-[4-(2,3-dihydro-benzo[1,4]dioxin-5-yloxy)-6-oxo-6H-pyridazin-1-yl]-N-[1-(2-hydroxy-2-methyl-propyl)-1H-pyrazol-3-yl]-propionamide]",0.135 µM
10,"O=C(O)c1ccc(NC(=O)[C@@H](CC2CCCC2)n2ncc(Oc3c(F)cccc3F)cc2=O)nc1 [Example 73B, 6-{(R)-3-Cyclopentyl-2-[4-(2,6-difluoro-phenoxy)-6-oxo-6H-pyridazin-1-yl]-propionylamino}-nicotinic acid]",0.507 µM
11,"CC(C)(O)Cn1ccc(NC(=O)C(CC2CCCC2)n2ncc(Oc3ccccc3S(C)(=O)=O)cc2=O)n1 (stereo not drawn) [Example 30, 3-Cyclopentyl-N-[1-(2-hydroxy-2-methyl-propyl)-1H-pyrazol-3-yl]-2-[4-(2-methanesulfonyl-phenoxy)-6-oxo-6H-pyridazin-1-yl]-propionamide]",2.975 µM
12,"CC(C)(O)Cn1ccc(NC(=O)C(CC2CCCC2)n2ncc(Oc3cccc(Oc4ccccc4)c3)cc2=O)n1 (stereo not drawn) [Example 35, 3-Cyclopentyl-N-[1-(2-hydroxy-2-methyl-propyl)-1H-pyrazol-3-yl]-2-[6-oxo-4-(3-phenoxy-phenoxy)-6H-pyridazin-1-yl]-propionamide]",2.173 µM
13,"COc1cnn(C(CC2CCCC2)C(=O)Nc2nccs2)c(=O)c1 (stereo not drawn) [Example 80, 3-Cyclopentyl-2-(4-methoxy-6-oxo-6H-pyridazin-1-yl)-N-thiazol-2-yl-propionamide]",3.208 µM
14,"O=C(O)c1ccc(NC(=O)C(CC2CCCC2)n2ncc(Oc3ccccc3F)cc2=O)nc1 (stereo not drawn) [Example 75, 6-{3-Cyclopentyl-2-[4-(2-fluoro-phenoxy)-6-oxo-6H-pyridazin-1-yl]-propionylamino}-nicotinic acid]",0.058 µM
15,"O=C(Nc1cnccn1)C(CC1CCCC1)n1ncc(Oc2ccccc2C(F)(F)F)cc1=O (stereo not drawn) [Example 76, 3-Cyclopentyl-2-[6-oxo-4-(2-trifluoromethyl-phenoxy)-6H-pyridazin-1-yl]-N-pyrazin-2-yl-propionamide]",0.376 µM
16,"Cc1ccccc1Oc1cnn([C@H](CC2CCCC2)C(=O)Nc2ccc(C(=O)O)cn2)c(=O)c1 [Example 74B, 6-[(R)-3-Cyclopentyl-2-(6-oxo-4-o-tolyloxy-6H-pyridazin-1-yl)-propionylamino]-nicotinic acid]",0.245 µM
17,"CC(C)(O)Cn1ccc(NC(=O)[C@H](CC2CCCC2)n2ncc(Oc3c(F)cccc3F)cc2=O)n1 [Example 36A, (S)-3-Cyclopentyl-2-[4-(2,6-difluoro-phenoxy)-6-oxo-6H-pyridazin-1-yl]-N-[1-(2-hydroxy-2-methyl-propyl)-1H-pyrazol-3-yl]-propionamide]",0.034 µM
18,"CC(C)(O)Cn1ccc(NC(=O)[C@H](CC2CCCC2)n2ncc(Oc3ccccc3F)cc2=O)n1 [Example 19A, (S)-3-Cyclopentyl-2-[4-(2-fluoro-phenoxy)-6-oxo-6H-pyridazin-1-yl]-N-[1-(2-hydroxy-2-methyl-propyl)-1H-pyrazol-3-yl]-propionamide]",0.104 µM
19,"CC(C)CC(C(=O)Nc1ccn(C)n1)n1ncc(Oc2cccc3c2ccn3C[C@@H](O)CO)cc1=O (stereo partly drawn) [Example 113, 2-{4-[1-((R)-2,3-Dihydroxy-propyl)-1H-indol-4-yloxy]-6-oxo-6H-pyridazin-1-yl}-4-methyl-pentanoic acid (1-methyl-1H-pyrazol-3-yl)-amide]",2.308 µM
20,"CC1CCCC(C)C1Oc1cnn(C(CC2CCCC2)C(=O)Nc2ccn(C[C@@H](O)CO)n2)c(=O)c1 (stereo partly drawn) [Example 91, 3-Cyclopentyl-N-[1-((R)-2,3-dihydroxy-propyl)-1H-pyrazol-3-yl]-2-[4-(2,6-dimethyl-cyclohexyloxy)-6-oxo-6H-pyridazin-1-yl]-propionamide]",> 30 µM
21,"COC(=O)c1ccc(NC(=O)C(CC2CCCC2)n2ncc(Oc3cccc4c3CCCC4)cc2=O)nc1 (stereo not drawn) [Example 67, 6-{3-Cyclopentyl-2-[6-oxo-4-(5,6,7,8-tetrahydro-naphthalen-1-yloxy)-6H-pyridazin-1-yl]-propionylamino}-nicotinic acid methyl ester]",0.132 µM
22,"CC(C)(O)Cn1ccc(NC(=O)C(CC2CCCC2)n2ncc(Cc3c(F)cccc3F)cc2=O)n1 (stereo not drawn) [Example 48, 3-Cyclopentyl-2-[4-(2,6-difluoro-benzyl)-6-oxo-6H-pyridazin-1-yl]-N-[1-(2-hydroxy-2-methyl-propyl)-1H-pyrazol-3-yl]-propionamide]",1.495 µM
23,"CC(C)CC(C(=O)Nc1ccn(C[C@@H](O)CO)n1)n1ncc(Oc2cccc3c2CCCC3)cc1=O (stereo partly drawn) [Example 110, 4-Methyl-2-[6-oxo-4-(5,6,7,8-tetrahydro-naphthalen-1-yloxy)-6H-pyridazin-1-yl]-pentanoic acid [1-((R)-2,3-dihydroxy-propyl)-1H-pyrazol-3-yl]-amide]",0.29 µM
24,"Cc1ccc(C)c(Oc2cnn(C(CC3CCCC3)C(=O)Nc3ccn(CC(C)(C)O)n3)c(=O)c2)c1C (stereo not drawn) [Example 88, 3-Cyclopentyl-N-[1-(2-hydroxy-2-methyl-propyl)-1H-pyrazol-3-yl]-2-[6-oxo-4-(2,3,6-trimethyl-phenoxy)-6H-pyridazin-1-yl]-propionamide]",0.204 µM
25,"CC(C)(O)Cn1ccc(NC(=O)[C@H](CC2CCCCC2)n2ncc(Oc3c(F)cccc3F)cc2=O)n1 [Example 51A, (S)-3-Cyclohexyl-2-[4-(2,6-difluoro-phenoxy)-6-oxo-6H-pyridazin-1-yl]-N-[1-(2-hydroxy-2-methyl-propyl)-1H-pyrazol-3-yl]-propionamide]",0.038 µM
